For one data set, the system named is KB. In words: Cytotoxicity against human KB cells. Format: functional.
For the next data set, the system named is Spodoptera littoralis. In words: Antifeedant activity in Spodoptera littoralis by choice test. In kind it is functional.
A further data set has as its system Radix natalensis. In words: Molluscicidal activity against Lymnaea natalensis after 2 hrs. Format: functional.
Another data set deals with Spodoptera eridania. Briefly: Antifeedant activity in Spodoptera eridania by choice test. In kind it is functional, organism-based.
A further data set has as its system Cyberlindnera jadinii. In words: Antimicrobial activity against Candida utilis. In kind it is functional.
The subject of another data set is Biomphalaria pfeifferi. Briefly: Molluscicidal activity against Biomphalaria pfeifferi after 2 hrs. Format: functional.
A further data set has as its system Mucor mucedo. In words: Antimicrobial activity against Mucor mucedo. Format: functional.
The next data set has as its system Spodoptera exempta. Briefly: Antifeedant activity in Spodoptera exempta by choice test. In kind it is functional.
The next data set has as its system Saccharomyces cerevisiae. Briefly: Antimicrobial activity against Saccharomyces cerevisiae. In kind it is functional.
In another data set the test system is Schistocerca gregaria. Briefly: Antifeedant activity in Schistocerca gregaria at 0.01% dry weight of fiber disc containing 5% sucrose by choice test. In kind it is functional.
A further data set has as its system Biomphalaria glabrata. Briefly: Molluscicidal activity against Biomphalaria glabrata after 2 hrs. In kind it is functional.
A further data set deals with Locusta migratoria. Briefly: Antifeedant activity in Locusta migratoria at 0.01% dry weight of fiber disc containing 5% sucrose by choice test. In kind it is functional.
In the next data set the test system is Schistocerca nitens. Briefly: Antifeedant activity in Schistocerca vaga by choice test. Format: functional, organism-based.
The next data set has as its system Manduca sexta. Briefly: Antifeedant activity in Manduca sexta by choice test. Format: functional, organism-based.
The subject of the next data set is Epilachna varivestis. In words: Antifeedant activity in Epilachna varivestis by choice test. In kind it is functional, organism-based.
A short description of data set [1]: Acute toxicity in sc dosed mouse. Format: organism-based. As to conditions: in vivo.
For the next data set, the system named is Sclerotinia sclerotiorum. Briefly: Antimicrobial activity against Sclerotinia libertiana. Format: functional.

The source made the active and inactive calls. No cut-off for these calls is given here.

One may read the LD50 as the dose expected to kill half of the subjects tested. Lower therefore signals greater toxicity. For `CC1(C)CCC[C@@]2(C)[C@H]1CC=C(C=O)[C@]2(O)C=O` [WARBURGANAL], the Activity amounted to 0.01 µg/mL with KB; 10 ppm in the data set on Spodoptera littoralis; 10 ppm in the data set with Radix natalensis; 3.1 µg/mL in the data set on Cyberlindnera jadinii; 5 ppm with Biomphalaria pfeifferi; 100 µg/mL with Mucor mucedo. Further, the Activity came out at 0.1 ppm with Spodoptera exempta; 12.5 µg/mL in the data set with Saccharomyces cerevisiae; 85% in the data set with Schistocerca gregaria; 5 ppm with Biomphalaria glabrata; 85% in the data set with Locusta migratoria; 50 µg/mL in the data set on Sclerotinia sclerotiorum. In addition, the outcome in the data set on Spodoptera eridania, with Schistocerca nitens, in the data set with Manduca sexta and in the data set on Epilachna varivestis was inactive. The LD50 in data set [1] is 20.4 mg/kg.

These data come from ChEMBL document CHEMBL1151380, “Recent Studies on Bioactive Compounds From Plants” (J Nat Prod, 1982).
